Common to all, as to assay type: in vivo
For one assay, the system named is Spodoptera frugiperda. The assay is described as follows: Spodoptera frugiperda larvae test (sprayed cabbage leaves). An excerpt: (§1) The expected action for a given combination of two active compounds can be calculated as follows, according to S. R. Colby, Weeds 15 (1967), 20-22:
(§2) If • X is the kill rate, expressed as a percentage of the untreated control, when employing active compound A at an application rate of m g/ha or in a concentration of m ppm, • Y is the kill rate, expressed as a percentage of the untreated control, when employing active compound B at an application rate of n g/ha or in a concentration of n ppm and • E is the kill rate, expressed as a percentage of the untreated control, when employing active compounds A and B at application rates of m and n g/ha or in a concentration of m and n ppm, then
(§3) If the actual insecticidal kill rate exceeds the calculated value, the kill of the combination is superadditive, i.e. a synergistic effect is present. In this case, the actually observed kill rate must exceed the value calculated using the above formula for the expected kill rate (E).
(§4) To produce a suitable preparation of active compound, 1 part by weight of active compound is mixed with the stated amounts of solvents and emulsifier, and the concentrate is diluted with emulsifier-containing water to the desired concentration.
Cabbage leaves (Brassica oleracea) are treated by spraying with the active compound preparation of the desired concentration and are populated with larvae of the army worm (Spodoptera frugiperda) while the leaves are still moist.
After the desired period of time, the kill in % is determined. 100% means that all caterpillars have been killed; 0% means that none of the caterpillars have been killed. The kill rates determined are entered into Colby's formula.

For another assay, the system named is Phaedon cochleariae. The assay is described as follows: Phaedon cochleariae larvae test (sprayed cabbage leaves).
Excerpt: as §1, §2, §3, §4
Cabbage leaves (Brassica oleracea) are treated by spraying with the active compound preparation of the desired concentration and are populated with larvae of the mustard beetle (Phaedon cochleariae) while the leaves are still moist.
After the desired period of time, the kill in % is determined. 100% means that all beetle larvae have been killed; 0% means that none of the beetle larvae have been killed. The kill rates determined are entered into Colby's formula.

A further assay deals with Myzus persicae. Put plainly: Myzus persicae test (spray on infested cabbage leaves).
Excerpt: as §1, §2, §3, §4
Cabbage leaves (Brassica oleracea) which are heavily infested by the green peach aphid (Myzus persicae) are treated by spraying with the active compound preparation of the desired concentration.
After the desired period of time, the kill in % is determined. 100% means that all aphids have been killed; 0% means that none of the aphids have been killed. The kill rates determined are entered into Colby's formula.

A further assay concerns Tetranychus urticae. Put plainly: Tetranychus test (OP-resistant/spray treatment).
Excerpt: as §1, §2, §3
To produce a suitable preparation of active compound, 1 part by weight of active compound is mixed with the stated amounts of solvents and emulsifier, and the concentrate is diluted with emulsifier-containing water to the desired concentration. […]
After the desired period of time, the activity in % is determined. […]

Take `CCC(C)(C)C(=O)OC1=C(c2ccc(Cl)cc2Cl)C(=O)OC12CCCCC2` [spirodiclofen]: in the assay on Spodoptera frugiperda (0.8 g/ha), the “Kill in % after 6d” value was 0%.

Turning to `Cc1cc(C)c(C2=C(OC(=O)CC(C)(C)C)C3(CCCC3)OC2=O)c(C)c1` [spiromesifen], the figures for the “Kill in % after 6d” value in the assay on Phaedon cochleariae (4 g/ha), in the assay with Myzus persicae (100 g/ha) and with Spodoptera frugiperda (0.8 g/ha) were 0%, 50% and 0%, respectively. For the same compound, the “Kill in % after 2d” value with Tetranychus urticae (4 g/ha) is 0%.

Turning to `CCOC(=O)OC1=C(c2cc(C)ccc2C)C(=O)N[C@]12CC[C@@H](OC)CC2` [spirotetramat], in the assay on Phaedon cochleariae (20 g/ha), the “Kill in % after 2d” value came out at 0%. Further, the “Kill in % after 6d” value with Myzus persicae (0.8 g/ha) and in the assay with Spodoptera frugiperda (0.8 g/ha) was 0% each time.

For the compound spinetoram, the “Kill in % after 6d” value with Phaedon cochleariae (0.8 g/ha) came out at 50%; in the assay on Myzus persicae (0.16 g/ha), 0%; in the assay with Myzus persicae (20 g/ha), 0%; in the assay on Spodoptera frugiperda (0.16 g/ha) it was 83%. The entries for the “Kill in % after 2d” value with Phaedon cochleariae (4 g/ha) and in the assay with Tetranychus urticae (0.8 g/ha) were 50% and 0%, respectively.

(Values after patent US8420608B2, “Active substance combinations with insecticides and acaricide properties” (Bayer Cropscience AG, priority 2008, dated 2013).)
